Results published in US7473683B2, “Nonpolar thymidine analogs” (The Board of Trustees of the Leland Stanford Junior …, priority 2005, dated 2009).

Legend:
[1] = system: DNA Pol I (Klenow fragment, exo-); experiment: steady-state kinetics of single nucleotide insertions, thymidine analogues in the template; type: biochemical, E. coli; set-up: efficiency: unit not given here; details: for efficiency as analog of thymidine in a template strand (summary): Example 4, dATP insertion; for Rel. efficiency: T template = 1; for rel. efficiency: relative to insertion of dATP opposite T
Description: (§1) In vitro steady-state kinetics. As polymerase substrates we used 28 mer/23 mer template-primer duplexes having the sequence (5′-ACT GXT CTCCCTATAGTGAGTCGTATTA [SEQ ID NO:1])·(5′-TAATACGACTCACTATAGGGAGA [SEQ ID NO:2]). Kinetics were measured at 37° C. in a buffer containing 10 mM Mg^2+. The primer was 5′ end-labeled and was extended by the polymerase in the presence of a single dNTP species over varied concentration and time. Products of single nucleotide insertions were resolved from unreacted primer by 20% denaturing gel electrophoresis, and were quantitated by autoradiography. Details of the kinetics experiments are given in the Supporting Data.
(§2) We chose DNA polymerase I (Klenow fragment, exonuclease-deficient) as an ideal candidate for initial study, as it is enzymatically well-characterized among replicative enzymes, and yet is relatively small and acts as a single subunit. We carried out kinetics studies of single nucleotide insertions in the steady state, using a gel electrophoresis-based assay.
(§3) Data for single nucleotide insertion kinetics in the steady-state. The enzyme was the Klenow fragment of DNA pol I from E. coli (exonuclease deficient). Methods are as described above.

[2] = system: self-complementary strands (5′-XCGCGCG); experiment: dangling end thermal denaturation studies (base stacking) with self-complementary strands; type: physicochemical; details: dangling residue X in 5′-XCGCGCG
Description: Thermal Denaturation Studies. After the samples were prepared in melting buffer (1M NaCl, 10 mM phosphate buffer (pH 7.0) with 0.1 mM EDTA), they were heated to 95° C. and allowed to slowly cool at a rate of 1° C./min to 5° C. The melting studies were carried out in Teflon-stoppered 1 cm path length quartz cells on a Varian Cary 1 UV-vis spectophotometer equipped with thermoprogrammer. Absorbance was monitored at 280 nm for stacking and at 260 nm for base pairing. […] The data were analyzed by the melt curve processing program, MeltWin v. 3.0. Melting temperatures (Tm) were determined by computer-fit of the first derivative of absorbance with respect to 1/T. Uncertainty in Tm is estimated at ±0.5° C. based on repetitions of experiments. Free-energy values were derived by two methods: (1) computer-fitting the denaturation data with an algorithm employing linear sloping baselines, using the two-state approximation for melting. Fits were excellent, with χ^−2 values of 10^−6 or better. (2) Van't Hoff thermodynamic parameters were derived from linear plots of 1/Tm vs In[CT] by measuring Tm as a function of concentration.
Sequence Design. We incorporated all five phosphoramidites into three new sequence contexts each for further study of pairing and stacking properties. The first is a self-complementary sequence designed to form a hexamer duplex, with the nonnatural base analogue overhanging (dangling) at the 5′ ends (Table 2). This same sequence context has been used previously in several studies of DNA base stacking. The second and third contexts comprise a pair of 12mer sequences that form duplexes with well-behaved two-state behavior. One strand is pyrimidine-rich, while the other is purine-rich; we substituted each analogue at a central position of each strand to test two widely varied sequence contexts for pairing effects.
Base Stacking. DNA base stacking stability has been correlated with the size of compounds when mono-, bi-, tri-, and tetra-cyclic base analogues were compared. To test this with the present series, which varies in size by a smaller amount, we examined the short self-complementary oligonucleotides by thermal denaturation experiments. The self-complementary duplexes contained the modified nucleosides as a 5′ overhanging base.

[3] = system: DNA Pol I (Klenow fragment, exo-); experiment: steady-state kinetics of single nucleotide insertions, incoming nucleotide analogues (dNTP/dXTP); type: biochemical, E. coli; details: for rel. efficiency: relative to insertion of dTTP opposite A
Description: as §1, §2, §3

[4] = Example 4: incorporating dATP opposite template thymidine analog
[5] = dNTP inserted opposite template base A, 37° C.
[6] = dNTP inserted opposite template base A, 37° C., 10 mM MgCl2, pH 7.5, normalized to lowest enzyme concentration
[7] = dNTP inserted opposite template base A
[8] = dNTP inserted opposite template base C, 37° C.
[9] = dNTP inserted opposite template base C, 37° C., 10 mM MgCl2, pH 7.5, normalized to lowest enzyme concentration
[10] = dNTP inserted opposite template base C
[11] = dNTP inserted opposite template base G, 37° C.
[12] = dNTP inserted opposite template base G, 37° C., 10 mM MgCl2, pH 7.5, normalized to lowest enzyme concentration
[13] = dNTP inserted opposite template base G
[14] = dNTP inserted opposite template base T, 37° C.
[15] = dNTP inserted opposite template base T, 37° C., 10 mM MgCl2, pH 7.5, normalized to lowest enzyme concentration
[16] = dNTP inserted opposite template base T
[17] = Example 4: incorporating dXTP opposite adenine in a DNA template

SMILES | Km [1, 4] [µM] | Vmax [1, 4] | efficiency [1, 4] | Rel. efficiency [1, 4] | Km [3, 5] [µM] | Vmax [3, 6] [% · min^−1] | rel. efficiency [3, 7] | Km [3, 8] [µM] | Vmax [3, 9] [% · min^−1] | rel. efficiency [3, 10] | Km [3, 11] [µM] | Vmax [3, 12] [% · min^−1] | rel. efficiency [3, 13] | Km [3, 14] [µM] | Vmax [3, 15] [% · min^−1] | rel. efficiency [3, 16] | other results
Cc1cc([C@H]2C[C@@H](O)[C@@H](CO)O2)c(Cl)cc1Br [2C4B] | 4.18 ± 0.47 | 30.4709 ± 0.8544 | (7.38 ± 1.07) × 10^6 | 4.0 × 10^−1 | – | – | – | – | – | – | – | – | – | – | – | – | efficiency as analog of thymidine in a template strand (summary) [1]: probably as good
Cc1cc([C@H]2C[C@@H](O)[C@@H](CO)O2)c(Cl)cc1Cl [2C4C, 2,4-dichlorotoluene] | – | – | – | – | – | – | – | – | – | – | – | – | – | – | – | – | efficiency as analog of thymidine in a template strand (summary) [1]: most efficient analog overall
Cc1cc([C@H]2C[C@@H](O)[C@@H](CO)O2)c(F)cc1Cl [2F4C] | 7.51 ± 2.79 | 49.7002 ± 1.5432 | (7.13 ± 2.13) × 10^6 | 3.8 × 10^−1 | – | – | – | – | – | – | – | – | – | – | – | – | efficiency as analog of thymidine in a template strand (summary) [1]: probably as good
Cc1cc([C@H]2C[C@@H](O)[C@@H](CO)O2)ccc1Cl [2H4C] | 31.5 ± 8.91 | 2.8214 ± 0.5396 | (9.81 ± 1.58) × 10^4 | 5.3 × 10^−3 | – | – | – | – | – | – | – | – | – | – | – | – | –
Cc1cc([C@H]2C[C@@H](O)[C@@H](CO)O2)cc(Cl)c1Cl [3,4-di-C] | 55 ± 24 | 0.4291 ± 0.1095 | (8.30 ± 1.55) × 10^3 | 4.5 × 10^−4 | – | – | – | – | – | – | – | – | – | – | – | – | –
Cc1cc(Cl)cc([C@H]2C[C@@H](O)[C@@H](CO)O2)c1 [3C] | 51.9 ± 1.9 | 0.4378 ± 0.1116 | (8.62 ± 0.85) × 10^3 | 4.6 × 10^−4 | – | – | – | – | – | – | – | – | – | – | – | – | –
Cc1c[nH]c(=O)[nH]c1=O [T, thymine, reference compound] | 2.6 ± 0.75 | 45.7931 ± 1.7743 | (1.86 ± 0.56) × 10^7 | 1 | – | – | – | – | – | – | – | – | – | – | – | – | ΔG°37 (van't Hoff) [2]: -9.1 ± 0.1 kcal/mol; ΔH° (van't Hoff) [2]: -54.4 ± 4.1 kcal/mol; ΔS° (van't Hoff) [2]: −146 ± 13 cal/K · mol; ΔΔG° stacking per base [2]: 0.65 kcal/mol; Tm ([2]; 5.0 μM DNA strand, 1M NaCl, 10 mM phosphate buffer (pH 7.0), 0.1 mM EDTA, 280 nm): 46.0 °C; ΔG°37 (fits) ([2]; curve fits): -9.1 ± 0.1 kcal/mol; ΔTm ([2]; versus duplex with no dangling residue): 7.4 °C; Km ([1]; insertion of dATP opposite template base, 37° C.): 1.9 ± 0.5 µM; Vmax ([1]; insertion of dATP opposite template base, 37° C., 10 mM MgCl2, pH 7.5, normalized to lowest enzyme concentration): 24 ± 1 % · m in^−1; rel. efficiency ([1]; insertion of dATP opposite template base): 1; Km ([1]; insertion of dCTP opposite template base, 37° C.): 46 ± 28 µM; Vmax ([1]; insertion of dCTP opposite template base, 37° C., 10 mM MgCl2, pH 7.5, normalized to lowest enzyme concentration): 0.022 ± 0.006 % · m in^−1; rel. efficiency ([1]; insertion of dCTP opposite template base): 3.7 × 10^−5; Vmax ([1]; insertion of dGTP opposite template base, 37° C., 10 mM MgCl2, pH 7.5, normalized to lowest enzyme concentration): 0.41 ± 0.15 % · m in^−1; rel. efficiency ([1]; insertion of dGTP opposite template base): 5.6 × 10^−4; Km ([1]; insertion of dTTP opposite template base, 37° C.): 38 ± 38 µM; Vmax ([1]; insertion of dTTP opposite template base, 37° C., 10 mM MgCl2, pH 7.5, normalized to lowest enzyme concentration): 0.012 ± 0.004 % · m in^−1; rel. efficiency ([1]; insertion of dTTP opposite template base): 2.5 × 10^−5
Cc1cc(C2CC(O)C(COP(=O)(O)OP(=O)(O)OP(=O)(O)O)O2)c(Br)cc1Br (stereo not drawn) [dBTP] | – | – | – | – | 23 ± 6 | 13 ± 2 | 3.6 × 10^−2 | 74 ± 22 | 0.016 ± 0.001 | 1.4 × 10^−5 | 50 ± 10 | 0.0094 ± 0.0004 | 1.2 × 10^−5 | 38 ± 21 | 0.8 ± 0.16 | 1.3 × 10^−3 | –
Cc1cc(C2CC(O)C(COP(=O)(O)OP(=O)(O)OP(=O)(O)O)O2)c(F)cc1F (stereo not drawn) [dFTP, reference compound] | – | – | – | – | 29 ± 10 | 2.9 ± 0.1 | 6.3 × 10^−3 | 200 ± 110 | 0.012 ± 0.004 | 3.8 × 10^−6 | 300 ± 120 | 0.0067 ± 0.0017 | 1.4 × 10^−6 | 37 ± 15 | 0.0066 ± 0.0010 | 1.1 × 10^−5 | –
Cc1cccc(C2CC(O)C(COP(=O)(O)OP(=O)(O)OP(=O)(O)O)O2)c1 (stereo not drawn) [dHTP] | – | – | – | – | 110 ± 20 | 0.11 ± 0.20 | 6.3 × 10^−5 | 310 ± 170 | 0.0067 ± 0.0023 | 1.4 × 10^−6 | 200 ± 90 | 0.0065 ± 0.0016 | 2.0 × 10^−6 | 59 ± 27 | 0.0046 ± 0.0011 | 4.9 × 10^−6 | –
Cc1cccc(C2CC(O)C(CO)O2)c1 (stereo not drawn) [dH] | – | – | – | – | – | – | – | – | – | – | – | – | – | – | – | – | fidelity (efficiency of correct T analog:A pair divided by efficiency of the most efficient mismatch) ([1]; varied-size template nucleoside mimics, insertion of dATP vs mismatch): 45
Cc1cc(C2CC(O)C(COP(=O)(O)OP(=O)(O)OP(=O)(O)O)O2)c(I)cc1I (stereo not drawn) [dITP] | – | – | – | – | 18 ± 2 | 1.8 ± 0.1 | 6.3 × 10^−3 | 23 ± 1 | 0.0023 ± 0.0004 | 6.3 × 10^−6 | 43 ± 7 | 0.0020 ± 0.0001 | 2.9 × 10^−6 | 37 ± 7 | 0.23 ± 0.02 | 3.9 × 10^−4 | –
Cc1cc(C2CC(O)C(COP(=O)(O)OP(=O)(O)OP(=O)(O)O)O2)c(Cl)cc1Cl (stereo not drawn) [dLTP] | – | – | – | – | 18 ± 5 | 39 ± 4 | 1.4 × 10^−1 | 160 ± 66 | 0.050 ± 0.010 | 1.9 × 10^−5 | 110 ± 30 | 0.035 ± 0.004 | 2.0 × 10^−5 | 62 ± 21 | 0.54 ± 0.10 | 5.4 × 10^−4 | efficiency lower than for insertion of natural dTTP ([3]; dNTP analog inserted opposite adenine): 7 fold
Cc1cn([C@H]2C[C@H](O)[C@@H](COP(=O)(O)OP(=O)(O)OP(=O)(O)O)O2)c(=O)[nH]c1=O [dTTP, reference compound] | – | – | – | – | 1.9 ± 0.4 | 30 ± 3 | 1 | 510 ± 400 | 0.067 ± 0.040 | 6.3 × 10^−6 | 140 ± 86 | 0.42 ± 0.18 | 2.5 × 10^−4 | 63 ± 18 | 0.010 ± 0.002 | 1.0 × 10^−5 | Km [3, 17]: 1.56 ± 1 µM; Vmax [3, 17]: 30.70 ± 12.0; efficiency [3, 17]: (2.29 ± 0.9) × 10^7; Rel. efficiency ([3]; Example 4: incorporating dXTP opposite adenine in a DNA template, dTTP = 1): 1
